Measured values taken from patent US9556159B2, “Renin inhibitor” (MITSUBISHI TANABE PHARMA CORPORATION, priority 2012, dated 2017).
Read-outs that look alike come from different tables or passages of the source.

Molecular target: T1, Recombinant human renin (Homo sapiens, UniProt P00797)
T1 sequence (P00797 67-406): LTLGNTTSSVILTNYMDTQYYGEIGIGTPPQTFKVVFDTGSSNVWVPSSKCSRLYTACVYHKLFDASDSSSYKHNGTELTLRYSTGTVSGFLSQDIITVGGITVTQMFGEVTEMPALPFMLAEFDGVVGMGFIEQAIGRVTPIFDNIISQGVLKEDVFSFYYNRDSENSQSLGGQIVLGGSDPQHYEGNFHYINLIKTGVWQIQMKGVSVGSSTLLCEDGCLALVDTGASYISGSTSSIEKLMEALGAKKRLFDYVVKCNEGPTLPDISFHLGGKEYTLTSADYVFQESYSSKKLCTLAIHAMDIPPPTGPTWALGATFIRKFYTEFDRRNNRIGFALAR
Test: Inhibitory activity against human renin (fluorogenic peptide substrate)
Type: biochemical
Details: 37° C. for 1 hour
Method: Inhibitory Activity Against Human Renin
A substrate of synthetic peptide (Nma-KHPFH LVIHK(Dnp)-NH2) and test compound were mixed, and fluorescence intensity was assayed using a fluorophotometer before starting an enzymatic reaction (exciting wavelength: 340 nm, measuring wavelength: 460 nm). Recombinant human renin was added and the mixture was incubated at 37° C. for 1 hour, and the fluorescence intensity was measured after the reaction using a fluorophotometer (exciting wavelength: 340 nm, measuring wavelength: 460 nm).

[1] = 50% inhibitory concentration (IC50) against human renin

| Compound | IC50 [1] [nM] | IC50 (read-out: IC50) [nM] |
| --- | --- | --- |
| CCOc1ccnc2c([C@@H](C)N(C(=O)[C@H]3CNCCO3)C3CC3)cn(CCCCOC)c12 [Example 101] |  | 2.5 |
| COC(=O)NCCCc1cc([C@@H](C)N(C(=O)[C@H]2CNCCO2)C2CC2)sc1-c1ccccc1CNS(=O)(=O)CC(F)(F)F [Example 286] | 0.4 |  |
| C[C@@H]1CNC[C@H](C(=O)N(C2CC2)[C@H](C)c2cc(Cc3ccccc3)c(-c3ccccc3-c3nnn[nH]3)s2)O1 [Example 296] | 7 |  |
| COC[C@H]1CO[C@@H](C(=O)N(C2CC2)[C@@H](C)c2cn(CCCNC(=O)OC)c(C3CCOCC3)n2)CN1 [Example 322] | 1.5 |  |
| CCc1cc(CCCNC(=O)OC)nc([C@@H](C)N(C(=O)[C@H]2CNCCO2)C2CC2)n1 [Example 399] | 4 |  |
| COC(=O)NCCCc1cc([C@@H](C)N(C(=O)[C@H]2CNCCO2)C2CC2)cc(Cl)n1 [Example 98] |  | 2.8 |
| CCc1nc([C@@H](C)N(C(=O)[C@H]2CNCCO2)C2CC2)cc2c1c(C)cn2CCCOC [Example 140] | 0.8 |  |
| COC(=O)NCCCn1cc([C@H](C)N(C(=O)[C@H]2CN[C@@H](CC(F)F)CO2)C2CC2)nc1C1CCOCC1 [Example 318] | 1.3 |  |
| COC[C@@H]1CNC[C@H](C(=O)N(C2CC2)[C@@H](C)c2cnc(OC)c(CCCNC(=O)OC)c2)O1 [Example 310] | 0.4 |  |
| COC[C@@H]1CNC[C@H](C(=O)N(C2CC2)[C@@H](C)c2nn(CCCNC(=O)OC)c(-c3ccccn3)c2C)O1 [Example 337] | 1.2 |  |
| CNC(=O)NCCCn1nc([C@@H](C)N(C(=O)[C@H]2CNCCO2)C2CC2)c2ccc(C)cc21 [Example 28] |  | 7.1 |
| COC(=O)NCCCc1cc([C@H](C)N(C(=O)[C@H]2CNC[C@@H](CF)O2)C2CC2)cc(OC)n1 [Example 314] | 0.5 |  |
| C[C@H](c1cn(Cc2ccccc2)c(-c2ccccc2)n1)N(C(=O)[C@H]1CNCCO1)C1CC1 [Example 194] | 3 |  |
| COC(=O)NCCCn1cc([C@@H](C)N(C(=O)[C@H]2CNC[C@@H](C)O2)C2CC2)nc1C(C)C [Example 245] | 0.3 |  |
| CCC(=O)NCCCc1cc([C@@H](C)N(C(=O)[C@H]2CNCCO2)C2CC2)ccc1OC [Example 68] |  | 4.5 |
| CCc1cc([C@H](C)N(C(=O)[C@H]2CNC[C@@H](COC)O2)C2CC2)cc(CCCNC(=O)OC)n1 [Example 329] | 0.8 |  |
| COC(=O)NCCCc1cc([C@@H](C)N(C(=O)[C@H]2CNCCO2)C2CC2)cc(C2CC2)n1 [Example 129] | 1.3 |  |

| Compound | IC50 [1] [nM] | IC50 (read-out: IC50) [nM] |
| --- | --- | --- |
| CCOc1ncc([C@@H](C)N(C(=O)[C@H]2CNCCO2)C2CC2)nc1CCCNC(=O)OC [Example 391] | 2 |  |
| COC(=O)NCCCc1cc([C@H](C)N(C(=O)[C@H]2CNCCO2)C2CC2)cnc1C1CCOCC1 [Example 317] | 0.6 |  |
| COC[C@H]1CO[C@@H](C(=O)N(C2CC2)[C@@H](C)c2nn(CCCNC(=O)OC)c(C3CCOCC3)c2C)CN1 [Example 327] | 2.9 |  |
| COC(=O)NCCCn1nc([C@@H](C)N(C(=O)[C@H]2CNCCO2)C2CC2)c2ccc(C3CC3)nc21 [Example 82] |  | 0.5 |
| COCC(C)Oc1ncc(C(C)N(C(=O)C2CNCCO2)C2CC2)nc1CCCNC(=O)OC (centres unmarked) [Example 436] | 2.2 |  |
| COC(=O)NCCCc1nc([C@@H](C)N(C(=O)[C@H]2CNCCO2)C2CC2)sc1-c1cccc(Cl)c1 [Example 377] | 2.4 |  |
| CNC(=O)[C@@H]1CNC[C@H](C(=O)N(C2CC2)[C@H](C)c2nn(CCCNC(=O)OC)c3nc(C)ccc23)O1 [Example 259] | 1.2 |  |
| CCc1nc([C@@H](C)N(C(=O)[C@H]2CNCCO2)C2CC2)cc2c1c(F)cn2CCCOC [Example 155] | 0.8 |  |
| COC(=O)NCCCn1cc(C(C)N(C(=O)[C@H]2CNCCO2)C2CC2)c2ncc(F)cc21 (some centres unmarked) [Example 139] | 2.1 |  |
| COC(=O)NCCCc1cc([C@@H](C)N(C(=O)[C@H]2CNCCO2)C2CC2)sc1-c1cc(C(=O)OC)cc(C(F)(F)F)c1 [Example 260] | 2.6 |  |
| COC(=O)NCCCc1cc([C@@H](C)N(C(=O)[C@H]2CNC[C@@H](C)O2)C2CC2)cc(C2CC2)n1 [Example 342] | 0.4 |  |
| COC[C@@H]1CNC[C@H](C(=O)N(C2CC2)[C@H](C)c2nn(CCCNC(=O)OC)c3nc(C)ccc23)O1 [Example 1, methyl (3-{3-[(1R)-1-(cyclopropyl{[(2R,6S)-6-(methoxymethyl)morpholin-2-yl]carbonyl}amino)ethyl]-6-methyl-1H-pyrazolo[3,4-b]pyridin-1-yl}propyl)carbamate] |  | 0.3 |
| COCCCCn1cc([C@@H](C)N(C(=O)[C@H]2CNCCO2)C2CC2)c2ncc(C3CC3)cc21 [Example 36] |  | 0.5 |
| COC(=O)NCCCc1cc(C(C)N(C(=O)[C@H]2CNCCO2)C2CC2)sc1-c1ccc(N)nc1 (some centres unmarked) [Example 425] | 8.8 |  |
| COc1ccc2nc([C@@H](C)N(C(=O)[C@H]3CNCCO3)C3CC3)cc(CCCNC=O)c2c1 [Example 157] | 3.4 |  |
| COC(=O)NCCCc1cc([C@H](C)N(C(=O)[C@H]2CNC[C@@H](CF)O2)C2CC2)nn1C1CCOCC1 [Example 340] | 0.7 |  |
| COCCCCn1cc([C@@H](C)N(C(=O)[C@H]2CNCCO2)C2CC2)c2ncc(C)cc21 [Example 20] |  | 0.5 |

Second part, the molecule after the results:

| IC50 [1] [nM] | IC50 (read-out: IC50) [nM] | Compound |
| --- | --- | --- |
| 0.4 |  | COC(=O)NCCCc1cc([C@@H](C)N(C(=O)[C@H]2CNC[C@@H](C)O2)C2CC2)nn1-c1ccccc1C [Example 345] |
| 0.5 |  | COC(=O)NCCCc1cc([C@@H](C)N(C(=O)[C@H]2CNCCO2)C2CC2)nn1-c1ccccc1C [Example 222] |
| 0.6 |  | COC[C@@H]1CNC[C@H](C(=O)N(C2CC2)[C@H](C)c2cc(CCCNC(=O)OC)n(-c3ccccc3)n2)O1 [Example 285] |
| 0.4 |  | COC(=O)NCCCn1cc([C@@H](C)N(C(=O)[C@H]2CNCCO2)C2CC2)nc1-c1ccc(C)cc1 [Example 163] |
| 0.4 |  | COC(=O)NCCCn1cc([C@@H](C)N(C(=O)[C@H]2CNC[C@@H](C(F)(F)F)O2)C2CC2)nc1-c1ccccc1 [Example 219] |
| 0.6 |  | COC(=O)NCCCn1nc([C@@H](C)N(C(=O)[C@H]2CNCCO2)C2CC2)cc1-c1ccc(C)nc1 [Example 180] |
| 0.3 |  | COC(=O)NCCCn1cc([C@@H](C)N(C(=O)[C@H]2CNCCO2)C2CC2)nc1-c1cccc(Cl)c1 [Example 175] |
| 1.4 |  | COC(=O)NCCCc1cc([C@@H](C)N(C(=O)[C@H]2CNCCO2)C2CC2)cnc1-c1ccccc1 [Example 128] |
| 6.8 |  | COC(=O)NCCCn1nc([C@@H](C)N(C(=O)[C@H]2CN[C@@H](CF)CO2)C2CC2)c2ccc(C)nc21 [Example 265] |
| 0.3 |  | COC(=O)NCCCc1cc([C@@H](C)N(C(=O)[C@H]2CNCCO2)C2CC2)nn1-c1ccccc1 [Example 183] |
| 1.3 |  | COC(=O)NCCCc1sc([C@@H](C)N(C(=O)[C@H]2CNCCO2)C2CC2)cc1-c1ccccc1CO [Example 435] |
| 4.7 |  | COC(=O)NCCCc1nc([C@@H](C)N(C(=O)[C@H]2CNC[C@@H](C)O2)C2CC2)sc1-c1cccc(Cl)c1 [Example 376] |
| 1.9 |  | COC(=O)NCCCc1cc(C(C)N(C(=O)[C@H]2CNC[C@@H](C)O2)C2CC2)nn1-c1ccccc1C(F)(F)F (some centres unmarked) [Example 350] |
| 0.3 |  | COC(=O)NCCCc1cc([C@@H](C)N(C(=O)[C@H]2CNCCO2)C2CC2)nn1-c1ccc(F)cc1 [Example 221] |
| 1.1 |  | COC(=O)NCCCc1nc([C@@H](C)N(C(=O)[C@H]2CNCCO2)C2CC2)sc1-c1ccccc1 [Example 218] |
| 0.8 |  | COC(=O)NCCCc1cc([C@@H](C)N(C(=O)[C@H]2CN[C@@H](C)CO2)C2CC2)nn1-c1ccccc1 [Example 355] |
| 0.6 |  | COC(=O)NCCCn1cc([C@@H](C)N(C(=O)[C@H]2CNCCO2)C2CC2)nc1-c1cccc(F)c1 [Example 165] |
| 2.4 |  | COC(=O)NCCCc1sc(C(C)N(C(=O)[C@H]2CNCCO2)C2CC2)cc1-c1cccnc1 (some centres unmarked) [Example 430] |
| 0.4 |  | COC(=O)NCCCn1nc([C@@H](C)N(C(=O)[C@H]2CNCCO2)C2CC2)cc1-c1cccc(C)n1 [Example 176] |
| 5.3 |  | COC[C@H]1CO[C@@H](C(=O)N(C2CC2)[C@@H](C)c2nn(CCCNC(=O)OC)c(-c3ccccn3)c2C)CN1 [Example 338] |
| 7.6 |  | COC(=O)NCCCc1cc([C@@H](C)N(C(=O)[C@H]2CN[C@@H](C)CO2)C2CC2)cc(C2CC2)n1 [Example 352] |
| 4.4 |  | COC(=O)NCCCn1nc([C@@H](C)N(C(=O)[C@H]2CNCCO2)C2CC2)cc1C(C)(C)c1ccccc1 [Example 387] |
| 1.6 |  | COC(=O)NCCCc1cc([C@@H](C)N(C(=O)[C@H]2CN[C@@H](CC(F)F)CO2)C2CC2)cc(OC)n1 [Example 306] |
| 0.3 |  | COC(=O)NCCCc1cc([C@@H](C)N(C(=O)[C@H]2CNC[C@@H](C)O2)C2CC2)nn1-c1cccc(F)c1 [Example 359] |
| 0.9 |  | COC(=O)NCCCn1cc([C@H](C)N(C(=O)[C@H]2CN[C@@H](C)CO2)C2CC2)nc1C1CCCCC1 [Example 335] |
| 0.4 |  | COC(=O)NCCCn1nc([C@@H](C)N(C(=O)[C@H]2CNCCO2)C2CC2)cc1-c1ccc(OC)nc1 [Example 174] |
| 0.4 |  | COC(=O)NCCCc1cc([C@@H](C)N(C(=O)[C@H]2CNC[C@@H](C)O2)C2CC2)nn1-c1cccc(C)c1 [Example 344] |
| 8.4 |  | COC(=O)NCCCc1sc([C@@H](C)N(C(=O)[C@H]2CN[C@@H](C)CO2)C2CC2)nc1-c1cccc(Cl)c1 [Example 368] |
